Results on 25 compounds are retold here after ChEMBL document CHEMBL1770111, “A series of structurally simple chloroquine chemosensitizing dibemethin derivatives that inhibit chloroquine transport by PfCRT” (Eur J Med Chem, 2011).

The test system of experiment [1] is Plasmodium falciparum. In words: Antiplasmodial activity against chloroquine-resistant Plasmodium falciparum W2 by parasite lactate dehydrogenase assay. It counts as functional, organism-based.
Experiment [2] relates to Plasmodium falciparum. Nature of the experiment: Resistance modification index, ratio of IC50 for chloroquine in presence of compound to IC50 for chloroquine alone for chloroquine-resistant Plasmodium falciparum W2. It counts as functional.
The subject of experiment [3] is Plasmodium falciparum. In words: Resistance modification index, ratio of compound IC10 to chloroquine IC50 in presence of IC10 compound for chloroquine-resistant Plasmodium falciparum W2. In kind it is functional.
Experiment [4] has as its system Plasmodium falciparum. In words: Antiplasmodial activity against chloroquine-resistant Plasmodium falciparum W2 at 15.2 uM by parasite lactate dehydrogenase assay. It counts as functional, organism-based.
Experiment [5] has as its system Plasmodium falciparum. Nature of the experiment: Inhibition of chloroquine-resistant Plasmodium falciparum […] CRT expressed in Xenopus laevis oocytes assessed as [3H]-chloroquine uptake after 1 to 2 hrs. To be noted: Oocyte.

The source made the active and inactive calls. The rule behind the calls is not given here.

Usually IC50 stands for the point on the concentration scale where inhibition reaches its midpoint. For orientation: IC10 means the concentration at which the effect reaches the 10% level.

In the experiment on Plasmodium falciparum [1], `COc1ccc(CN(C)Cc2ccc(CN)cc2)cc1` had an IC50 of 91 µM. In addition, the “Ratio IC50” value in the experiment on Plasmodium falciparum [2] worked out at 0.33.
With `CN(Cc1ccc(N(C)C)cc1)Cc1ccccc1CN`, inhibition in the experiment on Plasmodium falciparum [1] was half-maximal at 37 µM (IC50). The “Ratio IC50” value in the experiment with Plasmodium falciparum [2] came out at 0.36.
In the experiment with Plasmodium falciparum [1], `COc1ccc(CN(C)Cc2ccc(CNC=O)cc2)cc1` showed an IC10 of 16 µM and an IC50 of 37 µM. In addition, the “Ratio IC50” value in the experiment on Plasmodium falciparum [2] worked out at 1.22. Also, the “Ratio IC50” value in the experiment on Plasmodium falciparum [3] worked out at 0.46.
The matching figures for `COc1ccc(CN(C)Cc2ccccc2CNC=O)cc1`: 12 µM, 29 µM, 1.22 and 0.32.
`CN(Cc1ccc(N(C)C)cc1)Cc1cccc(CNC=O)c1`: the IC50 with Plasmodium falciparum [1] is 17 µM. Also, the entries for the “Ratio IC50” value in the experiment with Plasmodium falciparum [2] and in the experiment on Plasmodium falciparum [3] were 0.62 and 1, respectively. For the same compound, the inhibition entry with Plasmodium falciparum [4] was “inactive”.
With `CN(Cc1ccccc1)Cc1ccccc1CN`, the IC50 with Plasmodium falciparum [1] came to 4.1 µM; in the experiment with Plasmodium falciparum [5] (read-out: IC50), 24 µM. Besides, the “Ratio IC50” value in the experiment with Plasmodium falciparum [2] is listed as 0.03.
In the experiment on Plasmodium falciparum [1], `COc1ccc(CN(C)Cc2cccc(CNC=O)c2)cc1` registered an IC10 of 9 µM. In the experiment with Plasmodium falciparum [1], this compound came in with an IC50 of 48 µM. Also, the results for the “Ratio IC50” value in the experiment on Plasmodium falciparum [2] and in the experiment on Plasmodium falciparum [3] were 1.19 and 0.51, respectively.
On to `CN(Cc1ccc(Cl)cc1)Cc1cccc(CNC=O)c1`, for which, in the experiment on Plasmodium falciparum [1], the 10% effect level (IC10) was put at 4 µM and the IC50 came to 16 µM. For the same compound, the “Ratio IC50” value in the experiment on Plasmodium falciparum [3] amounted to 0.51.
With `CN(Cc1ccc(CNC=O)cc1)Cc1ccc(N(C)C)cc1`, the 10% effect level in the experiment with Plasmodium falciparum [1] (IC10) was put at 15.2 µM. For the same compound, the IC50 in the experiment with Plasmodium falciparum [1] was 33 µM; in the experiment on Plasmodium falciparum [5] (read-out: IC50) it was 657 µM. Moreover, the figures for the “Ratio IC50” value in the experiment with Plasmodium falciparum [2] and in the experiment on Plasmodium falciparum [3] were 1.36 and 0.46, respectively.
In the case of `CN(Cc1ccc(Cl)cc1)Cc1ccc(CN)cc1`, the IC50 with Plasmodium falciparum [1] was found to be 63 µM; in the experiment with Plasmodium falciparum [5] (read-out: IC50), 140 µM. Besides, the “Ratio IC50” value in the experiment on Plasmodium falciparum [2] is given as 0.25.
Regarding `CN(Cc1ccccc1)Cc1cccc(CN)c1`, in the experiment with Plasmodium falciparum [1], the IC50 worked out at 2.8 µM. Besides, the “Ratio IC50” value with Plasmodium falciparum [2] was determined as 0.08.
In the experiment on Plasmodium falciparum [1], `CN(Cc1ccc(Cl)cc1)Cc1ccccc1CN` gave a half-inhibitory concentration (IC50) of 5.7 µM. For the same compound, the “Ratio IC50” value in the experiment on Plasmodium falciparum [2] is reported as 0.096.
`CN(Cc1ccccc1)Cc1cccc(CNC=O)c1`: the IC10 in the experiment with Plasmodium falciparum [1] worked out at 9.7 µM. This compound also returned an IC50 in the experiment on Plasmodium falciparum [1] of 21 µM. The “Ratio IC50” value with Plasmodium falciparum [2] came out at 0.84; in the experiment on Plasmodium falciparum [3], 0.29.
In the experiment with Plasmodium falciparum [1], `CN(Cc1ccccc1)Cc1ccccc1CNC=O` yielded an IC10 of 1.7 µM and an IC50 of 11 µM. Further, in the experiment on Plasmodium falciparum [2], the “Ratio IC50” value is 0.75. The “Ratio IC50” value in the experiment on Plasmodium falciparum [3] was 0.44.
In turn, `COc1ccc(CN(C)Cc2cccc(CN)c2)cc1` came in with an IC50 in the experiment on Plasmodium falciparum [1] of 6.8 µM. Besides, the “Ratio IC50” value in the experiment on Plasmodium falciparum [2] was found to be 0.25.
In the experiment with Plasmodium falciparum [1], `CN(Cc1ccccc1)Cc1ccc(CNC=O)cc1` had an IC10 of 18 µM and an IC50 of 56 µM. In addition, the “Ratio IC50” value in the experiment on Plasmodium falciparum [2] is listed as 1.13. Moreover, the “Ratio IC50” value in the experiment on Plasmodium falciparum [3] stood at 0.43.
As to `CN(Cc1ccc(Cl)cc1)Cc1ccccc1CNC=O`, in the experiment on Plasmodium falciparum [1], the IC10 turned out to be 12 µM and the IC50 stood at 119 µM. Further, the “Ratio IC50” value with Plasmodium falciparum [2] turned out to be 1.07. Moreover, the “Ratio IC50” value in the experiment on Plasmodium falciparum [3] is listed as 0.34.
The matching figures for `CN(Cc1ccc(N(C)C)cc1)Cc1ccccc1CNC=O`: 15 µM, 42 µM, 1 and 0.49.
For `COc1ccc(CCN(C)CCCC(C#N)(c2ccc(OC)c(OC)c2)C(C)C)cc1OC` (configuration not stated) [VERAPAMIL], the “Ratio IC50” value in the experiment with Plasmodium falciparum [2] is on record as 0.26. The IC50 in the experiment on Plasmodium falciparum [5] was 30 µM.
`CN(Cc1ccccc1)Cc1ccc(CN)cc1`: the IC50 with Plasmodium falciparum [1] amounted to 29 µM. Besides, the “Ratio IC50” value in the experiment on Plasmodium falciparum [2] is given as 0.24.
Compound `COc1ccc(CN(C)Cc2ccccc2CN)cc1` had an IC50 in the experiment on Plasmodium falciparum [1] above 233 µM. In the experiment with Plasmodium falciparum [2], the “Ratio IC50” value is reported as 0.35.
For `CN(Cc1ccc(Cl)cc1)Cc1ccc(CNC=O)cc1`, in the experiment with Plasmodium falciparum [1], the 10% effect level (IC10) was put at 5.4 µM and 29 µM corresponded to half-maximal inhibition (IC50). The “Ratio IC50” value in the experiment on Plasmodium falciparum [2] came out at 0.9. Moreover, in the experiment on Plasmodium falciparum [3], the “Ratio IC50” value was determined as 0.46.
Turning to `CN(Cc1ccc(Cl)cc1)Cc1cccc(CN)c1`, the values for the IC50 in the experiment with Plasmodium falciparum [1] and with Plasmodium falciparum [5] (read-out: IC50) were 30 µM and 101 µM, respectively. The “Ratio IC50” value in the experiment on Plasmodium falciparum [2] stood at 0.31.
In the experiment on Plasmodium falciparum [1], `CN(Cc1ccc(N(C)C)cc1)Cc1cccc(CN)c1` came in with an IC50 of 30 µM. For the same compound, the “Ratio IC50” value in the experiment on Plasmodium falciparum [2] is on record as 0.24.
On the same counts, the results for `CN(Cc1ccc(CN)cc1)Cc1ccc(N(C)C)cc1` are 11.7 µM and 0.21.
